According to patent US20070128217A1 (priority 2003, published 2007):

Key:
[1] = test system: rabbit serum obtained by immunizing a rabbit with the SARS-CoV strain Frankfurt 1; format: binding; set-up: Binding of a rabbit serum to linear peptides / Binding of a rabbit serum to looped peptides / Rabbit serum linear peptides / Rabbit serum looped peptides / Binding of a rabbit serum to linear peptides of protein N of SARS-CoV Urbani (Rabbit serum linear peptides) / Binding of a rabbit serum to looped/cyclic peptides of protein N of SARS-CoV Urbani (Rabbit serum looped peptides): unit not given here
[2] = test system: antibodies in sera from SARS patients (sera 1a, 1b, 2, 6, 37, 62, London, SARS-yellow, SARS-green); format: binding, human; set-up: Binding of serum 6 to linear peptides of protein X1 of SARS-CoV Urbani / Binding of serum 37 to linear peptides of protein X1 of SARS-CoV Urbani / Binding of serum 6 to looped/cyclic peptide (PEPSCAN-ELISA) / Binding of serum 37 to looped/cyclic peptide (PEPSCAN-ELISA) / Binding of serum 37 to looped/cyclic peptides of protein X1 of SARS-CoV Urbani / Binding of serum 6 to linear peptides of protein X2 / Binding of serum 37 to linear peptides of protein X2 / Binding of serum 37 to looped/cyclic peptides of protein X2 of SARS-CoV Urbani / Binding of serum 6 to linear peptides of protein M of SARS-CoV Urbani / Binding of serum 37 to linear peptides of protein M of SARS-CoV Urbani / Binding of serum 6 to looped/cyclic peptides of protein M of SARS-CoV Urbani / Binding of serum 37 to looped/cyclic peptides of protein M of SARS-CoV Urbani / Binding of serum 6 to linear peptides of protein X3 of SARS-CoV Urbani / Binding of serum 37 to linear peptides of protein X3 of SARS-CoV Urbani / Binding of serum 37 to looped/cyclic peptides of protein X3 of SARS-CoV Urbani / Binding of serum 6 to linear peptides of protein X4 of SARS-CoV Urbani / Binding of serum 37 to linear peptides of protein X4 of SARS-CoV Urbani / Binding of serum 37 to looped/cyclic peptides of protein X4 of SARS-CoV Urbani / Binding of serum 6 to linear peptides of protein X5 of SARS-CoV Urbani / Binding of serum 37 to linear peptides of protein X5 of SARS-CoV Urbani / Binding of serum 37 to looped/cyclic peptides of protein X5 of SARS-CoV Urbani / Binding of serum 6 to linear peptides of protein N of SARS-CoV Urbani / Binding of serum 37 to linear peptides of protein N of SARS-CoV Urbani / Binding of serum 6 to linear peptide (PEPSCAN-ELISA) / Binding of serum 1a to looped/cyclic peptides of protein N of SARS-CoV Urbani / Binding of serum 1b to looped/cyclic peptides of protein N of SARS-CoV Urbani / Binding of serum 2 to looped/cyclic peptides of protein N of SARS-CoV Urbani / Binding of serum 6 to looped/cyclic peptides of protein N of SARS-CoV Urbani / Binding of serum 37 to looped/cyclic peptides of protein N of SARS-CoV Urbani / Binding of serum 62 to looped/cyclic peptides of protein N of SARS-CoV Urbani / Binding of serum London to looped/cyclic peptides of protein N of SARS-CoV Urbani / Binding of serum SARS-green to looped/cyclic peptides of protein N of SARS-CoV Urbani: unit not given here
[3] = test system: control sera (pooled serum of ten healthy LUMC hospital workers; commercial negative donor pooled serum from the Dutch bloodbank); format: binding, human; set-up: Binding of Control serum LUMC to linear peptides / Binding of Control serum Blood-bank to linear peptides / Binding of Control serum LUMC to looped peptides / Binding of Control Serum Blood-Bank to Looped peptides / Binding of Control serum LUMC to linear peptides of the protein M of SARS-CoV Urbani / Binding of Control serum Blood-bank to linear peptides of the protein M of SARS-CoV Urbani / Binding of Control serum LUMC to looped peptides of the protein M of SARS-CoV Urbani / Binding of Control Serum Blood-Bank to Looped peptides of the protein M of SARS-CoV Urbani: unit not given here
[4] = test system: recombinant human anti-SARS-CoV antibody 03-018; format: binding; set-up: Binding of antibody 03-018 to linear peptides of the N protein of SARS-CoV Urbani / Binding of antibody 03-018 to looped/cyclic peptides of the N protein of SARS-CoV Urbani: unit not given here

Row | Sequence | Binding of a rabbit serum to linear peptides of protein N of SARS-CoV Urbani (Rabbit serum linear peptides) [1] | Binding of a rabbit serum to looped/cyclic peptides of protein N of SARS-CoV Urbani (Rabbit serum looped peptides) [1] | Binding of serum 1a to linear peptides of protein N of SARS-CoV Urbani [2] | Binding of serum 1a to looped/cyclic peptides of protein N of SARS-CoV Urbani [2] | Binding of serum 1b to linear peptides of protein N of SARS-CoV Urbani [2] | Binding of serum 1b to looped/cyclic peptides of protein N of SARS-CoV Urbani [2] | Binding of serum 2 to linear peptides of protein N of SARS-CoV Urbani [2] | Binding of serum 2 to looped/cyclic peptides of protein N of SARS-CoV Urbani [2] | Binding of serum 6 to looped/cyclic peptides of protein N of SARS-CoV Urbani [2] | Binding of serum 37 to looped/cyclic peptides of protein N of SARS-CoV Urbani [2] | Binding of serum 62 to looped/cyclic peptides of protein N of SARS-CoV Urbani [2] | Binding of serum London to looped/cyclic peptides of protein N of SARS-CoV Urbani [2] | Binding of serum SARS-green to looped/cyclic peptides of protein N of SARS-CoV Urbani [2] | Binding of serum SARS-yellow to looped/cyclic peptides of protein N of SARS-CoV Urbani [2] | Binding of Control Serum Blood-Bank to Looped peptides [3] | Binding of Control serum Blood-bank to linear peptides [3] | Binding of Control serum LUMC to linear peptides [3] | Binding of Control serum LUMC to looped peptides [3] | Binding of antibody 03-018 to linear peptides of the N protein of SARS-CoV Urbani [4] | Binding of antibody 03-018 to looped/cyclic peptides of the N protein of SARS-CoV Urbani [4] | also measured
1 | QNGGRNGARPKQRRP | 0.2 | 0.4 | 0.2 | 0.3 | 0.1 | 0.1 | 0.3 | 0.3 | 0.2 | 0.6 | 0.4 | 0.3 | 0.6 | 0.5 | 0.6 | 0.6 | 0.8 | 0.8 | 0.2 | 0.3 | Binding of serum 6 to linear peptides of protein N of SARS-CoV Urbani [2]: 0.2; Binding of serum 37 to linear peptides of protein N of SARS-CoV Urbani [2]: 0.7; Binding of serum 62 to linear peptides of protein N of SARS-CoV Urbani [2]: 0.8; Binding of serum London to linear peptides of protein N of SARS-CoV Urbani [2]: 0.5; Binding of serum SARS-green to linear peptides of protein N of SARS-CoV Urbani [2]: 0.5; Binding of serum SARS-yellow to linear peptides of protein N of SARS-CoV Urbani [2]: 0.7
2 | QPTVTLLPAADMDDF | 0.1 | 0.0 | 0.3 | 0.3 | 0.2 | 0.2 | 0.2 | 0.2 | 0.1 | 0.5 | 0.3 | 0.2 | 0.4 | 0.4 |  |  |  |  | 0.1 | 0.2 | Binding of serum 6 to linear peptides of protein N of SARS-CoV Urbani [2]: 0.2; Binding of serum 37 to linear peptides of protein N of SARS-CoV Urbani [2]: 1.1; Binding of serum 62 to linear peptides of protein N of SARS-CoV Urbani [2]: 0.7; Binding of serum London to linear peptides of protein N of SARS-CoV Urbani [2]: 0.5; Binding of serum SARS-green to linear peptides of protein N of SARS-CoV Urbani [2]: 1.9; Binding of serum SARS-yellow to linear peptides of protein N of SARS-CoV Urbani [2]: 0.7; Control Serum Blood-Bank Looped peptides [3]: 0.5; Control serum Blood-bank linear peptides [3]: 0.7; Control serum LUMC linear peptides [3]: 0.5; Control serum LUMC looped peptides [3]: 0.5
3 | QQGQTVTKKSAAEAS | 0.2 | 0.0 |  | 0.5 |  | 0.4 |  | 0.5 | 0.3 | 0.6 | 0.5 | 0.4 | 0.8 | 0.5 | 0.5 | 0.8 | 0.7 | 0.5 | 0.1 | 0.2 | Recognition of the peptide by sera of SARS-CoV infected individuals, and form (linear, looped/cyclic) in which it is recognized [2]: recognized in linear form
4 | QRRPQGLPNNTASWF | 0.1 | 0.6 | 0.2 | 0.5 | 0.1 | 0.3 | 0.1 | 0.5 | 0.4 | 0.7 | 0.6 | 0.5 | 0.7 | 0.6 | 0.8 | 0.7 | 0.6 | 0.9 | 0.1 | 0.2 | Binding of serum 6 to linear peptides of protein N of SARS-CoV Urbani [2]: 0.2; Binding of serum 37 to linear peptides of protein N of SARS-CoV Urbani [2]: 0.6; Binding of serum 62 to linear peptides of protein N of SARS-CoV Urbani [2]: 0.7; Binding of serum London to linear peptides of protein N of SARS-CoV Urbani [2]: 0.4; Binding of serum SARS-green to linear peptides of protein N of SARS-CoV Urbani [2]: 0.2; Binding of serum SARS-yellow to linear peptides of protein N of SARS-CoV Urbani [2]: 0.7
5 | QTQGNFGDQDLIRQG | 0.1 | 0.6 |  | 0.5 |  | 0.4 |  | 0.5 | 0.3 | 0.9 | 0.9 | 0.6 | 0.4 | 0.8 | 0.8 | 0.9 | 0.9 | 0.7 | 0.1 | 0.2 | Recognition of the peptide by sera of SARS-CoV infected individuals, and form (linear, looped/cyclic) in which it is recognized [2]: recognized in linear form
